System: healthy subjects ≧60 years of age
Experiment: Adverse events during oral vancomycin pre-treatment period of the Phase 1 study
Assay type: in vivo, human
Experimental: VP20621 (10^4, 10^6, or 10^8 spores) or placebo were administered as a single dose to subjects age 18-45 (Group 1) or ≧60 years of age (Group 2). In Group 3, an oral suspension of 10^8 spores or placebo was administered twice daily for five days to patients≧60 years in age. In Group 4, subjects≧60 years of age received 5 days of oral vancomycin followed by 14 days of once daily VP20621 (10^4, 10^6, or 10^8 spores) or placebo. All subjects were followed through day 28. C. difficile stool cultures were performed at various time points. C. difficile isolates were tested for the production of toxin by enzyme immunoassay.
Purified VP 20621 (spores of a non-toxigenic strain of C. difficile) were produced in a liquid culture medium free of animal-derived components. VP 20621 was administered as an oral liquid suspension. The potency of the drug is based on the viable count of the spores.
Forty-three (43) subjects were pre treated with vancomycin to ensure that a sufficient number of subjects would be available for randomization to achieve the planned target sample size of 36. Twelve (28%) of the 43 subjects had adverse events during the vancomycin pre treatment period (Table 1).

[1] = vancomycin pre-treatment, N = 43

CN[C@H](CC(C)C)C(=O)N[C@H]1C(=O)N[C@@H](CC(N)=O)C(=O)N[C@H]2C(=O)N[C@H]3C(=O)N[C@H](C(=O)N[C@H](C(=O)O)c4cc(O)cc(O)c4-c4cc3ccc4O)[C@H](O)c3ccc(c(Cl)c3)Oc3cc2cc(c3O[C@@H]2O[C@H](CO)[C@@H](O)[C@H](O)[C@H]2O[C@H]2C[C@](C)(N)[C@H](O)[C@H](C)O2)Oc2ccc(cc2Cl)[C@H]1O [Vancomycin, vancomycin]
Subjects with a gastrointestinal adverse effect (Group 4, during pre-treatment with vancomycin): 16% | Subjects with mild diarrhea or loose/watery stools (Group 4, during pre-treatment with vancomycin (3/43)): 7% | Subjects with adverse events (vancomycin pre treatment period, twelve of 43 subjects): 28% | Gastrointestinal AEs: Abdominal distention [1]: 1 (2%) | Gastrointestinal AEs: Abdominal pain [1]: 2 (5%) | Gastrointestinal AEs: Flatulence [1]: 1 (2%) | Gastrointestinal AEs: Gingival bleeding [1]: 1 (2%) | Gastrointestinal AEs: Oral paresthesia [1]: 1 (2%) | Gastrointestinal AEs: Toothache [1]: 1 (2%) | Gastrointestinal AEs: Vomiting [1]: 1 (2%) | Other AEs: Dizziness [1]: 2 (5%) | Other AEs: Dry skin [1]: 1 (2%) | Other AEs: Malaise [1]: 1 (2%) | Other AEs: Pruritis [1]: 1 (2%) | Other AEs: Rash [1]: 1 (2%) | Gastrointestinal AEs: Diarrhea (vancomycin pre-treatment, oral 125 mg QID Days −5 to −1, N = 43): 3 (7%)
